Test results from a melting point compilation (Tetko et al.).

melting point [°C] | SMILES
179 to 181 | Cc1ccc(S(=O)(=O)NC(CC(N)=O)C(=O)O)cc1C (stereo unspecified)
79 to 81 | O=C(O)c1cccnc1OCC(F)F
162 to 164 | Nc1ccc(S(=O)(=O)Nc2ccc(Cl)cc2Cl)cc1
74 to 76 | ClC(c1ccccc1)c1nc(-c2ccccc2)no1 (stereo unspecified)
34 to 36 | O=S(CCCl)c1ccccc1 (stereo unspecified)
66 to 68 | FC(F)(F)c1ccc(-n2cccn2)nc1
201 to 203 | COc1ccc2c(c1)OCC(C(=O)O)=C2
110 to 112 | Nc1cc(-c2cc(F)cc(F)c2)[nH]n1
170 to 172 | Nc1ccncc1C(=O)C(F)(F)F
82 to 84 | Cc1ccc(C#N)cc1S(=O)(=O)Cl
70 to 72 | CS(=O)(=O)NCc1cccc(CN)c1
64 to 66 | Fc1ccccc1-c1nc(CCl)cs1
93 to 95 | CC(c1ccc(F)cc1F)S(N)(=O)=O (stereo unspecified)
57 to 59 | O=[N+]([O-])c1ccc(F)cc1S(=O)(=O)Cl
109 to 111 | CCCOc1ccc(CNC(=O)CCl)cc1
55 to 57 | COc1ccccc1OCc1ccccc1N
92 to 94 | CC(C)COC(=O)Nc1cccc(N)c1
72 to 74 | COC(=O)c1cc([N+](=O)[O-])c(Br)cc1F
104 to 106 | CC1(C)C(O)CC1O (stereo unspecified)
119 to 121 | CN(C)S(=O)(=O)c1cn(C)cn1
57 to 59 | COc1cc(OC)cc(Oc2ccc(C=O)cc2)c1
61 to 63 | CC(N)c1ccc(N2CCOCC2)cc1 (stereo unspecified)
159 to 161 | S=c1cc[nH]c2ccccc12
269 to 271 | Oc1ccc(C2=Nn3c(nnc3-c3ccc(Br)cc3)SC2)cc1O
55 to 57 | O=[N+]([O-])c1cnn(CCCl)c1

melting point [°C] | SMILES
143 to 147 | Cc1c(NC(=O)C(C)Sc2nnc(N)s2)c(=O)n(-c2ccccc2)n1C (stereo unspecified)
137 to 139 | COc1ccc(CNc2nnc(S)s2)cc1
36 to 38 | C=CCOc1ccc(O)cc1
139 to 141 | CN(C)S(=O)(=O)c1ccc2nc(Cl)c(Cl)nc2c1
118 to 120 | CNc1ccc(C=O)cc1[N+](=O)[O-]
225 to 227 | O=C(O)/C=C/c1csc2ccccc12
47 to 49 | CCOC(=O)NCCC(=O)O
38 to 40 | CC=Cc1ccc(OCCCC(=O)OC)c(OC)c1
129 to 131 | CCCCCCCCCC(=O)N[C@@H](CCC(N)=O)C(=O)O
135 to 136 | O=C(O)C1CCN(S(=O)(=O)c2cccc(C(F)(F)F)c2)CC1
76 to 78 | COC(=O)CCNc1ccc(F)cc1[N+](=O)[O-]
168 to 170 | CCOc1ccc2cc(C(=O)O)[nH]c2c1
196 to 198 | O=C(O)c1ccc(NCCO)cc1
156 to 158 | NS(=O)(=O)c1ccc(NC(=O)CCl)cc1
61 to 63 | O=C(c1ccc(F)cc1)c1ccccc1Cl
212 to 214 | Cc1c(N)cccc1S(N)(=O)=O
74 to 76 | COc1ccc(-c2csc(C)n2)cc1OC
114 to 116 | CC(=O)N(C)c1cccc(N)c1
109 to 111 | C=CCn1c(S)nc2ccccc21
81 to 83 | CCN(CC)S(=O)(=O)c1ccc(C(C)=O)cc1
108 to 110 | COc1ccc(C(C)=CC(=O)O)cc1
181 to 183 | Cc1ccc(Sc2nc(=N)s[nH]2)cc1
154 to 156 | CCN(CC)Cc1ccc(C(=O)O)cc1
209 to 211 | O=C(Nc1ccc(Br)cc1)C1CCNCC1
146 to 148 | CC(=O)Nc1cccs1

melting point [°C] | SMILES
144 to 146 | Cc1ccc(S(=O)(=O)Cl)c(C)c1OCC(=O)O
122 to 124 | Cc1c(Br)cc(S(=O)(=O)Cl)cc1[N+](=O)[O-]
224 to 226 | O=C(O)c1c2c(nc3ccccc13)CCN(Cc1ccccc1)C2
171 to 173 | NC(=S)c1cc([N+](=O)[O-])ccc1N
224 to 226 | O=C(O)COc1ccc2cc(Br)ccc2c1
211 to 213 | Nc1ccc(S(=O)(=O)Nc2nncs2)cc1
49 to 51 | O=C1CCNc2ccc(F)cc21
135 to 137 | O=C1OCCN1c1cccc([N+](=O)[O-])c1
39 to 41 | CCOCCCNC(=S)NCc1ccc(OC)cc1
123 to 125 | O=[N+]([O-])c1cc(S(=O)(=O)Nc2ccc(Br)cc2)ccc1Cl
117 to 119 | ClCc1cc2c(cc1Br)OCCO2
92 to 94 | CC(C)CNC(=O)C(C)Nc1cccc(Br)c1 (stereo unspecified)
70 to 72 | Cc1cccc(C#N)n1
199 to 201 | Cc1c(C(=O)O)oc2c1C(=O)CC(C)(C)C2
121 to 123 | O=S1(=O)N=C(Cl)c2ccccc21
45 to 47 | CN(C)S(=O)(=O)c1cccc(CCl)c1
49 to 51 | Brc1ccc(OCC2CO2)cc1 (stereo unspecified)
83 to 85 | COCc1ccc(CNC(=O)CCl)cc1
97 to 99 | N#Cc1ccc(Oc2ccccc2O)c(F)c1
157 to 159 | CNc1ccnc(C(N)=O)c1
182 to 184 | Cc1nn(C)c2nc(Cl)c(C=O)cc12
86 to 88 | N#Cc1ccc(OC(F)F)c(N)c1
104 to 106 | CN(C)c1ccc(C=O)cc1[N+](=O)[O-]
95 to 98 | O=C(NC(Cc1c[nH]c2ccccc12)C(=O)O)c1ccc(F)cc1 (stereo unspecified)
284 to 286 | O=C(O)c1ccc(NC(=O)C23CC4CC(CC(C4)C2)C3)cc1

melting point [°C] | SMILES
56 to 60 | O=C(O)CCNc1ccccc1
178 to 180 | CS(=O)(=O)Nc1ccc(C(=O)CBr)cc1
80 to 82 | COCCOc1cccc(C(=O)O)c1
119 to 121 | O=C(CCl)Nc1ccnn1Cc1ccccc1Cl
154 to 156 | O=C(CCl)NC(=O)NCC(F)(F)F
188 to 190 | CC1(c2ccc3c(c2)CCC3)NC(=O)NC1=O (stereo unspecified)
211 to 213 | N#Cc1ccc(N2N=C(c3ccccc3)CC2=O)cc1
169 to 171 | CCN1N=C(C(F)(F)F)CC1=O
157 to 159 | O=C(O)CSc1nnc(NC2CCCCC2)s1
174 to 176 | COc1cccc2c1OCC(C(=O)O)C2 (stereo unspecified)
212 to 214 | Nc1ccc(C(=O)Nc2cccnc2)cc1
273 to 275 | O=C(O)CNS(=O)(=O)c1c[nH]c2ncccc12
249 to 251 | CN1C(=O)c2ccc(C(=O)O)cc2S1(=O)=O
45 to 47 | O=S(=O)(Cl)Cc1ccc(F)cc1Br
123 to 125 | Nc1cccc(-c2ccc3c(c2)CCO3)n1
150 to 152 | Cc1ccccc1-c1noc(S)n1
55 to 57 | COc1ccc(-c2csc(C)n2)cc1
131 to 133 | O=C(O)CCN1C(=O)CCC1=O
49 to 51 | N#Cc1cccc(OCC(F)F)n1
157 to 159 | O=C(O)CCc1ccc(S(=O)(=O)Cl)cc1
239 to 241 | N#Cc1c(Cl)cccc1Oc1cccc(C(=O)O)c1
51 to 53 | O=Cc1nccc2ccccc12
139 to 141 | Cc1ncc(-c2ccccc2)cc1N

SMILES | melting point [°C]
COc1coc(CCl)cc1=O | 116 to 118
Cc1[nH]ncc1S(=O)(=O)Cl | 95 to 97
CC(C)(C)OC(=O)NCC1CC2CCCC(C1)N2 (stereo unspecified) | 219 to 221
